Test results reported in PubChem BioAssay (NCI).
Where “and” joins values, the source holds several entries; their conditions need not be identical. Equal values may be shown once.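 48-hour exposure; five concentrations; linearly interpolated endpoints. GI50 marks 50% less growth. The concentration for full growth arrest is given as TGI.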

What was measured:
Test in all cases: DTP human tumour cell line panel, 48 h
MDA-N = system: MDA-N
OVCAR-8 ovarian = system: OVCAR-8 ovarian
CAKI-1 renal = system: CAKI-1 renal
MCF7 breast = system: MCF7 breast
SR leukemia = system: SR leukemia
OVCAR-5 ovarian = system: OVCAR-5 ovarian
COLO 205 colon = system: COLO 205 colon
SF-539 CNS = system: SF-539 CNS
HS 578T breast = system: HS 578T breast
HOP-92 NSCLC = system: HOP-92 NSCLC

Structure (SMILES)	TGI (MDA-N)	TGI (OVCAR-8 ovarian)	TGI (CAKI-1 renal)	TGI (MCF7 breast)	TGI (SR leukemia)	TGI (OVCAR-5 ovarian)	TGI (COLO 205 colon)	TGI (SF-539 CNS)	TGI (HS 578T breast)	TGI (HOP-92 NSCLC)	GI50 (OVCAR-8 ovarian)	GI50 (CAKI-1 renal)	GI50 (HOP-92 NSCLC)	GI50 (MCF7 breast)	GI50 (COLO 205 colon)	GI50 (SF-539 CNS)	GI50 (OVCAR-5 ovarian)
Cc1cccc(N2CCN(S(=O)(=O)c3ccc(Cl)cc3)C2=N)c1C	> 100 µM	> 100 µM	> 100 µM	> 100 µM	> 100 µM	> 100 µM	> 100 µM	> 100 µM	–	–	–	–	–	–	–	–	–
COCCCN1C(=O)C2c3[nH]c4ccccc4c3C3CCC(C(C)(C)C)CC3C2C1=O (stereo not given)	> 100 µM	> 100 µM	55 µM	56.2 µM	80.6 µM	–	> 10 µM	70.2 µM	87.6 µM	–	–	–	–	–	–	–	–
COC1(OC)/C(=C(\N)C=O)NC(C)(C)N1O	> 100 µM	> 100 µM	> 100 µM	> 100 µM	> 100 µM	> 100 µM	> 100 µM	> 100 µM	–	> 100 µM	–	–	–	–	–	–	–
O=C(CCN1CCCCC1CO)Nc1ccc2c(c1)C(=O)c1ccc(NC(=O)CCN3CCCCC3CO)cc1C2=O (stereo not given)	–	39.6 µM	57.6 µM	–	68.9 µM	67.5 µM	21.7 µM	16.1 µM	–	37.2 µM	–	–	–	–	–	–	–
c1csc(-c2ccc(-c3ccc(-c4cccs4)s3)s2)c1	> 100 µM	> 100 µM	> 100 µM	> 100 µM	> 100 µM	> 100 µM	> 100 µM	> 100 µM	> 100 µM	–	–	–	–	–	–	–	–
COc1ccc(CC2C(=O)NC(C)C(=O)N(C)C3Cc4ccc(cc4)Oc4cc(ccc4O)CC(C(=O)NC(C)C(=O)NC(C)C(=O)N2C)N(C)C3=O)cc1 (stereo not given)	–	0.144 µM and 0.0379 µM	–	–	0.112 µM	0.0305 µM and 0.0607 µM	0.0745 µM	0.0219 µM and 0.0288 µM	–	0.000866 µM	0.00034 µM	0.497 µM and 0.647 µM and 0.0727 µM	0.000108 µM	< 0.0001 µM	0.000278 µM	< 0.0001 µM	–
Cc1ccc(S(=O)(=O)NC(=O)NS(=O)(=O)O)cc1	> 100 µM	> 100 µM	–	> 100 µM	> 100 µM	> 100 µM	> 100 µM	> 100 µM	> 100 µM	> 100 µM	–	–	–	–	–	–	–
C=CC1(CCC(Br)C(C)(C)Cl)CO1 (stereo not given)	> 10 µM	> 10 µM	> 10 µM	> 10 µM	–	> 10 µM	> 10 µM	> 10 µM	–	> 10 µM	–	–	–	–	–	–	–
CSc1s[s+]c(SC)c1-c1ccccc1	32.7 µM	40.3 µM	36.4 µM	33.7 µM	–	31.2 µM	32.4 µM	32.4 µM	86.9 µM	33.6 µM	–	–	–	–	–	–	–
CCOC(=O)Cc1nc2c(=O)[nH]cnc2n1C1OC(COC(C)=O)C(OC(C)=O)C1OC(C)=O (stereo not given)	> 100 µM	> 100 µM	> 100 µM	> 100 µM	–	> 100 µM	> 100 µM	> 100 µM	> 100 µM	> 100 µM	–	–	–	–	–	–	–
COC(=O)c1cc2c3c(c(C(C)=O)c(OC)c2[nH]1)NCC3	> 50 µM	> 50 µM	> 50 µM	> 50 µM	> 50 µM	> 50 µM	> 50 µM	> 50 µM	> 50 µM	–	–	–	–	–	–	–	–
C=C1C(=O)C[C@@]23CCC[C@@]12CC(O)C3 (stereo not given in full)	–	> 100 µM	–	33.6 µM	–	> 54.2 µM	41.1 µM	61.3 µM	–	42.1 µM	–	–	–	–	–	–	–
Cc1nn(C(=O)c2ccccc2O)c2c1C(c1ccc(O)cc1)SC(N)=N2 (stereo not given)	> 10 µM	> 10 µM	> 10 µM	> 10 µM	> 3.92 µM	> 10 µM	> 10 µM	> 2.47 µM	> 10 µM	–	–	–	–	–	–	–	–
CNC(=O)OCC1=C(COC(=O)NC)CN(c2ccccc2)C1	> 100 µM	> 100 µM	–	> 100 µM	> 100 µM	> 100 µM	> 100 µM	> 100 µM	> 100 µM	> 100 µM	–	–	–	–	–	–	–
NC(CO)c1ccccc1 (stereo not given)	–	> 100 µM	> 100 µM	–	> 100 µM	> 100 µM	–	> 100 µM	–	> 100 µM	–	–	–	–	–	–	–
O=C(Nc1ccccc1)N1N=C(c2ccccc2)C1c1ccccc1 (stereo not given)	70.7 µM	> 100 µM	95.3 µM	51.8 µM	–	> 100 µM	> 100 µM	34.5 µM	60.7 µM	91.9 µM	–	–	–	–	–	–	–
CN(C)CCNc1nc2ccccc2c2c1C(=O)c1ccccc1-2	1.39 µM	2.26 µM	2.54 µM	1.87 µM	–	5.25 µM	2.23 µM	3.04 µM	24.3 µM	3.07 µM	–	–	–	–	–	–	–
COc1ccccc1OC/C(N=Cc1ccncc1)=N/NC(=O)c1ccncc1	> 100 µM	> 100 µM	> 100 µM	> 100 µM	–	> 100 µM	> 100 µM	> 100 µM	> 100 µM	> 100 µM	–	–	–	–	–	–	–

Structure (SMILES)	TGI (MDA-N)	TGI (OVCAR-8 ovarian)	TGI (CAKI-1 renal)	TGI (MCF7 breast)	TGI (SR leukemia)	TGI (OVCAR-5 ovarian)	TGI (COLO 205 colon)	TGI (SF-539 CNS)	TGI (HS 578T breast)	TGI (HOP-92 NSCLC)	GI50 (OVCAR-8 ovarian)	GI50 (CAKI-1 renal)	GI50 (HOP-92 NSCLC)	GI50 (MCF7 breast)	GI50 (COLO 205 colon)	GI50 (SF-539 CNS)	GI50 (OVCAR-5 ovarian)
COC(=O)C(Cc1ccccc1)NC(=O)CCCNC(=O)OCc1ccccc1 (stereo not given)	> 100 µM	> 100 µM	> 100 µM	> 100 µM	> 100 µM	> 100 µM	> 100 µM	–	> 100 µM	> 100 µM	–	–	–	–	–	–	–
COc1cc(/C=C2\C[C@H]3[C@@H]4CC=C5C[C@@H](N6CCCC6)CC[C@]5(C)[C@H]4CC[C@]3(C)[C@H]2OC(C)=O)cc(OC)c1OC	23.3 µM	28.7 µM	32.6 µM	29.8 µM	–	29.7 µM	25.6 µM	–	35.1 µM	22.3 µM	–	–	–	–	–	–	–
CC(=O)c1c(O)c(C)c(O)c2c1OC1=CC(=O)C(C(C)=O)C(=O)C12C (stereo not given)	–	22.3 µM and 52.2 µM	79.8 µM and 26.8 µM	24.7 µM and 26 µM	–	50.4 µM and 84.6 µM	17.4 µM and 54.8 µM	18.4 µM and 23.5 µM	–	9.69 µM and 57.1 µM	4.84 µM and 14.1 µM	29.5 µM and 10.5 µM	5.38 µM and 18.7 µM	5.75 µM and 12 µM	4.71 µM and 19.9 µM	5.09 µM and 16.3 µM	17.1 µM and 38.1 µM
C=C1c2nc3ccccc3n2C=C(c2ccccc2)N1c1ccc(OC)cc1	> 100 µM	55 µM	64 µM	24.1 µM	> 100 µM	> 100 µM	> 100 µM	26.9 µM	–	> 100 µM	–	–	–	–	–	–	–
CN1C(=O)[C@@]2(C=CC3(CC2)OCCO3)c2ccccc21	> 50 µM	> 50 µM	> 50 µM	> 50 µM	> 50 µM	> 50 µM	> 50 µM	–	–	> 50 µM	–	–	–	–	–	–	–
Cc1ccc(Nc2nnc3n2S(=O)(=O)c2cc(C)c(Cl)cc2S3)cc1	4.33 µM	33.1 µM	66.1 µM	> 100 µM	7.85 µM	74.8 µM	–	14.7 µM	8.67 µM	83.1 µM	–	–	–	–	–	–	–
COc1cc2cc3c4c(cc(OC)c(OC)c4c2cc1OC)CCN3C(=O)OCCBr	–	> 100 µM	> 100 µM	–	> 100 µM	> 100 µM	> 100 µM	> 100 µM	–	> 100 µM	–	–	–	–	–	–	–
C=CCOn1c(C=C)nc2c(C)cccc21	11.4 µM	> 100 µM	5.25 µM	12.5 µM	12.6 µM	23.3 µM	3.6 µM	–	> 100 µM	34.4 µM	–	–	–	–	–	–	–
C=C1C(=O)O[C@H]2C(=O)[C@H](C)CCC[C@@](C)(O)/C=C\C[C@@]3(C)O[C@@H]3C[C@@H]12	34.8 µM	48 µM	27 µM	37.5 µM	–	3.64 µM	30.4 µM	36.9 µM	90.2 µM	23.8 µM	–	–	–	–	–	–	–
CCOC(=O)C(Cc1c(-c2[nH]c3ccccc3c2CC(NC(=O)CNC(C)=O)C(=O)OCC)[nH]c2ccccc12)NC(=O)CNC(C)=O (stereo not given)	> 100 µM	–	> 100 µM	–	> 100 µM	> 100 µM	35.4 µM	–	> 100 µM	85.2 µM	–	–	–	–	–	–	–
COc1cc([C@@H]2c3cc4c(cc3[C@@H](Nc3ccc(Cl)cc3C(=O)c3ccccc3Cl)[C@H]3COC(=O)[C@H]23)OCO4)cc(OC)c1OC	–	> 36.2 µM	> 43.3 µM	> 100 µM	0.425 µM	> 100 µM	–	0.198 µM	–	–	–	–	–	–	–	–	–
CN(C)CCn1c(=O)c2ccc(NCCNCCO)c3c(=O)c4cc(O)ccc4n(c1=O)c23	7.49 µM	7.47 µM	–	6.23 µM	0.619 µM	16.1 µM	4.6 µM	1.65 µM	11.4 µM	4.56 µM	–	–	–	–	–	–	–
COc1ccc(-c2c(C(C)=O)c(C)n(C3OC(CO)C(O)C(O)C3O)c(=S)c2C#N)cc1 (stereo not given)	> 100 µM	> 100 µM	> 100 µM	> 100 µM	> 100 µM	> 100 µM	> 100 µM	> 100 µM	> 100 µM	–	–	–	–	–	–	–	–
CCN(CC)c1ccc(C(=C2C=CC(=[N+](CC)CC)C=C2)c2ccccc2)cc1	–	–	0.504 µM	–	0.0791 µM	0.342 µM	0.136 µM	0.269 µM	–	0.0971 µM	–	–	–	–	–	–	–
COc1cc(C2S/C(=C/c3ccccc3)C(=O)N2c2ccc(Cl)cc2)cc(OC)c1OC (stereo not given)	34.3 µM	> 100 µM	> 100 µM	> 100 µM	> 100 µM	> 100 µM	5.68 µM	–	> 100 µM	> 52 µM	–	–	–	–	–	–	–
c1ccc(C/C(=N\Nc2nc3ccccc3o2)c2ccccn2)cc1	5.13 µM	1.42 µM	0.654 µM	0.0215 µM	2.05 µM	–	0.0114 µM	1.21 µM	29 µM	0.268 µM	–	–	–	–	–	–	–
OCc1ccccc1OC1OC(CO)C(O)C(O)C1O (stereo not given)	> 100 µM	> 100 µM	> 100 µM	> 100 µM	–	> 100 µM	> 100 µM	> 100 µM	> 100 µM	> 100 µM	–	–	–	–	–	–	–
